For this experiment, the system named is MDA-MB-231 human breast cancer cells. The experiment can be described thus: Cell proliferation assay (CellTiter-Glo, 72 hours treatment). The experiment is classed as cell-based. To be noted: Homo sapiens; MDA-MB-231 cells, 72 hours at 37° C., CellTiter-Glo; read-out: MDA-MB-231 cell proliferation assay (IC50). Summed up:
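IC50 categories: under 100 nM +++, 100–1000 nM ++, above 1000 nM +, derived by sigmoidal curve fitting of CellTiter-Glo luminescence. Cells plated at 2,500 per well, dosed the following day and exposed 72 h at 37 °C versus DMSO control.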
A general note: ATP-based viability assays read luminescence as a measure of living cells.
With `COc1nc(C#N)cc2c1[C@]1(O)[C@H](O)[C@H](CN3CCC(F)(F)CC3)[C@@H](c3ccccc3)[C@]1(c1ccc(C#N)cc1)O2` (racemic) [157Fc, Rac-(5aR,6S,7S,8R,8aS)-5a-(4-cyanophenyl)-7-((4,4-difluoropiperidin-1-yl)methyl)-8,8a-dihydroxy-1-methoxy-6-phenyl-5a,7,8,8a-tetrahydro-6H-cyclopenta[4,5]furo[3,2-c]pyridine-3-carbonitrile], the IC50 was in the range of 100 to 1000 nM.

On to `COc1nc(C#N)cc2c1[C@]1(O)[C@H](O)[C@H](CN3CCCC3)[C@@H](c3ccccc3)[C@]1(c1ccc(Br)cc1)O2` (racemic) [158Fa, Rac-(5aR,6S,7S,8R,8aS)-5a-(4-bromophenyl)-8,8a-dihydroxy-1-methoxy-6-phenyl-7-(pyrrolidin-1-ylmethyl)-5a,7,8,8a-tetrahydro-6H-cyclopenta[4,5]furo[3,2-c]pyridine-3-carbonitrile], for which the IC50 was below 100 nM.

As for `COc1nc(Cl)cc2c1[C@]1(O)[C@H](O)[C@H](CN3CCCC3)[C@@H](c3ccccc3)[C@]1(c1ccc(C#N)cc1)O2` (racemic) [158Fb, Rac-4-((5aR,6S,7S,8R,8aS)-3-chloro-8,8a-dihydroxy-1-methoxy-6-phenyl-7-(pyrrolidin-1-ylmethyl)-6,7,8,8a-tetrahydro-5aH-cyclopenta[4,5]furo[3,2-c]pyridin-5a-yl)benzonitrile], the IC50 was below 100 nM.

As to `COc1nc(C#N)cc2c1[C@]1(O)[C@H](O)[C@H](CN3CCCC3)[C@@H](c3ccccc3)[C@]1(c1ccc(C#N)cc1)O2` (racemic) [158Fc, Rac-(5aR,6S,7S,8R,8aS)-5a-(4-cyanophenyl)-8,8a-dihydroxy-1-methoxy-6-phenyl-7-(pyrrolidin-1-ylmethyl)-5a,7,8,8a-tetrahydro-6H-cyclopenta[4,5]furo[3,2-c]pyridine-3-carbonitrile], the IC50 was below 100 nM.

With `CCN(CC)C[C@H]1[C@@H](O)[C@@]2(O)c3c(cc(C#N)nc3OC)O[C@@]2(c2ccc(Br)cc2)[C@@H]1c1ccccc1` (racemic) [159Fa, Rac-(5aR,6S,7S,8R,8aS)-5a-(4-bromophenyl)-7-((diethylamino)methyl)-8,8a-dihydroxy-1-methoxy-6-phenyl-5a,7,8,8a-tetrahydro-6H-cyclopenta[4,5]furo[3,2-c]pyridine-3-carbonitrile], the IC50 was below 100 nM.

In the case of `CCN(CC)C[C@H]1[C@@H](O)[C@@]2(O)c3c(cc(Cl)nc3OC)O[C@@]2(c2ccc(C#N)cc2)[C@@H]1c1ccccc1` (racemic) [159Fb, Rac-4-((5aR,6S,7S,8R,8aS)-3-chloro-7-((diethylamino)methyl)-8,8a-dihydroxy-1-methoxy-6-phenyl-6,7,8,8a-tetrahydro-5aH-cyclopenta[4,5]furo[3,2-c]pyridin-5a-yl)benzonitrile], the IC50 is below 100 nM.

In the case of `CCN(CC)C[C@H]1[C@@H](O)[C@@]2(O)c3c(cc(C#N)nc3OC)O[C@@]2(c2ccc(C#N)cc2)[C@@H]1c1ccccc1` (racemic) [159Fc, Rac-(5aR,6S,7S,8R,8aS)-5a-(4-cyanophenyl)-7-((diethylamino)methyl)-8,8a-dihydroxy-1-methoxy-6-phenyl-5a,7,8,8a-tetrahydro-6H-cyclopenta[4,5]furo[3,2-c]pyridine-3-carbonitrile], the IC50 was below 100 nM.

For the compound `O[C@@H]1[C@H](Sc2ccccn2)[C@@H](c2ccccc2)[C@]2(c3ccc(Br)cc3)Oc3cc(Cl)cnc3[C@]12O` (racemic) [160Fa, Rac-(5aR,6S,7R,8S,8aS)-5a-(4-bromophenyl)-3-chloro-6-phenyl-7-(pyridin-2-ylthio)-5a,6,7,8-tetrahydro-8aH-cyclopenta[4,5]furo[3,2-b]pyridine-8,8a-diol], the IC50 was in the range of 100 to 1000 nM.

`O[C@H]1[C@H](Sc2ccccn2)[C@@H](c2ccccc2)[C@]2(c3ccc(Br)cc3)Oc3cc(Cl)cnc3[C@]12O` (racemic) [160Fb, Rac-(5aR,6S,7R,8R,8aS)-5a-(4-bromophenyl)-3-chloro-6-phenyl-7-(pyridin-2-ylthio)-5a,6,7,8-tetrahydro-8aH-cyclopenta[4,5]furo[3,2-b]pyridine-8,8a-diol]: the IC50 is above 1000 nM.

As for `COC(=O)[C@@H]1[C@@H](c2ccccc2)[C@]2(c3ccc(Br)cc3)Oc3cc(Cl)cnc3[C@@]23O[C@@H]13` (racemic) [161F, Rac-methyl (1aS,2R,3S,3aR,8bS)-3a-(4-bromophenyl)-6-chloro-3-phenyl-1a,2,3,3a-tetrahydro-oxireno[2″,3″:1′,5′]cyclopenta[1′,2′:4,5]furo[3,2-b]pyridine-2-carboxylate], the IC50 is above 1000 nM.

As to `OC[C@H]1C[C@@H](c2ccccc2)[C@]2(c3ccc(Br)cc3)Oc3cc(Cl)cnc3[C@]12O` (racemic) [162F, Rac-(5aR,6S,8R,8aR)-5a-(4-bromophenyl)-3-chloro-8-(hydroxymethyl)-6-phenyl-5a,6,7,8-tetrahydro-8aH-cyclopenta[4,5]furo[3,2-b]pyridin-8a-ol], the IC50 was 100 to 1000 nM.

As to `O=S(=O)(c1ccccn1)[C@H]1[C@@H](O)[C@@]2(O)c3ncc(Cl)cc3O[C@@]2(c2ccc(Br)cc2)[C@@H]1c1ccccc1` (racemic) [163F, rac-(5aR,6S,7R,8S,8aS)-5a-(4-bromophenyl)-3-chloro-6-phenyl-7-(pyridin-2-ylsulfonyl)-5a,6,7,8-tetrahydro-8aH-cyclopenta[4,5]furo[3,2-b]pyridine-8,8a-diol], the IC50 was in the range of 100 to 1000 nM.

For the compound `N#Cc1ccc([C@@]23Oc4cc(Cl)cnc4[C@]2(O)[C@H](O)[C@H](S(=O)(=O)c2ccccn2)[C@H]3c2ccccc2)cc1` (racemic) [164F, Rac-4-((5aR,6S,7R,8S,8aS)-3-chloro-8,8a-dihydroxy-6-phenyl-7-(pyridin-2-ylsulfonyl)-6,7,8,8a-tetrahydro-5aH-cyclopenta[4,5]furo[3,2-b]pyridin-5a-yl)benzonitrile], the IC50 was in the range of 100 to 1000 nM.

`NC[C@@H]1C[C@@H](c2ccccc2)[C@]2(c3ccc(Br)cc3)Oc3cc(Cl)cnc3[C@]12O` (racemic) [165F, Rac-(5aR,6S,8S,8aR)-8-(aminomethyl)-5a-(4-bromophenyl)-3-chloro-6-phenyl-5a,6,7,8-tetra-hydro-8aH-cyclopenta[4,5]furo[3,2-b]pyridin-8a-ol]: the IC50 lay within 100 to 1000 nM.

For `OC[C@@H]1C[C@@H](c2ccccc2)[C@]2(c3ccc(Br)cc3)Oc3cc(Cl)cnc3[C@]12O` (racemic) [166F, rac-(5aR,6S,8S,8aR)-5a-(4-bromophenyl)-3-chloro-8-(hydroxymethyl)-6-phenyl-5a,6,7,8-tetrahydro-8aH-cyclopenta[4,5]furo[3,2-b]pyridin-8a-ol], the IC50 was in the range of 100 to 1000 nM.

Take `N#Cc1ccc([C@@]23Oc4cc(Cl)cnc4[C@]2(O)[C@@H](CO)C[C@H]3c2ccccc2)cc1` (racemic) [167F, Rac-4-((5aR,6S,8R,8aR)-3-chloro-8a-hydroxy-8-(hydroxymethyl)-6-phenyl-6,7,8,8a-tetrahydro-5aH-cyclopenta[4,5]furo[3,2-b]pyridin-5a-yl)benzonitrile]: the IC50 lay in the range of 100 to 1000 nM.

As for `N#Cc1ccc([C@@]23Oc4cc(Cl)cnc4[C@]2(O)[C@H](CO)C[C@H]3c2ccccc2)cc1` (racemic) [168F, Rac-4-((5aR,6S,8S,8aR)-3-chloro-8a-hydroxy-8-(hydroxymethyl)-6-phenyl-6,7,8,8a-tetrahydro-5aH-cyclopenta[4,5]furo[3,2-b]pyridin-5a-yl)benzonitrile], the IC50 was above 1000 nM.
